Data set [1] can be described thus: in vitro. Particulars: human, HCT8 cells.
Description: Cytotoxicity against human HCT8 cells assessed as inhibition of cell proliferation at 100 uM after 4 hrs by MTT assay relative to control
Data set [2] can be described thus: in vitro. Particulars: human, SW620 cells.
Description: Cytotoxicity against human SW620 cells assessed as inhibition of cell proliferation at 100 uM after 4 hrs by MTT assay relative to control
Data set [3] has as its target T1, Amine oxidase [flavin-containing] A (Homo sapiens, UniProt P21397).
T1 sequence (P21397 whole entry): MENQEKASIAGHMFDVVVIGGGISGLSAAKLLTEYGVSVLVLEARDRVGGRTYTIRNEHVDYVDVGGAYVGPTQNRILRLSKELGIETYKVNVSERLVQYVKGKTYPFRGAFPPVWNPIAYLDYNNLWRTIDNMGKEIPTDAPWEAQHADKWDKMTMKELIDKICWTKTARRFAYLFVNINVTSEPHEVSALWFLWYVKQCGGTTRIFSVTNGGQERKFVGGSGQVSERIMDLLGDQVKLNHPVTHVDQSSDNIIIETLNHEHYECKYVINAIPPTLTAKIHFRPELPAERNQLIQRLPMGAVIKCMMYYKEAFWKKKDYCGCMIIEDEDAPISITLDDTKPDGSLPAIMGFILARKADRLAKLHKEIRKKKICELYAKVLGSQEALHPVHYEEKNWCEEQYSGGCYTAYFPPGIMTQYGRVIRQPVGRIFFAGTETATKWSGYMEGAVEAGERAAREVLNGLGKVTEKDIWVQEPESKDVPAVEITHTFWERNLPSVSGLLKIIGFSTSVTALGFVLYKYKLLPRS
Put plainly: biochemical.
Description: Inhibition of recombinant human MAOA expressed in baculovirus infected BTI insect cells using beetle luciferin as substrate after 1 hr by MAO-Glo assay

Data set [4] has as its target T2, Amine oxidase [flavin-containing] B (Homo sapiens, UniProt P27338).
T2 sequence (P27338 whole entry): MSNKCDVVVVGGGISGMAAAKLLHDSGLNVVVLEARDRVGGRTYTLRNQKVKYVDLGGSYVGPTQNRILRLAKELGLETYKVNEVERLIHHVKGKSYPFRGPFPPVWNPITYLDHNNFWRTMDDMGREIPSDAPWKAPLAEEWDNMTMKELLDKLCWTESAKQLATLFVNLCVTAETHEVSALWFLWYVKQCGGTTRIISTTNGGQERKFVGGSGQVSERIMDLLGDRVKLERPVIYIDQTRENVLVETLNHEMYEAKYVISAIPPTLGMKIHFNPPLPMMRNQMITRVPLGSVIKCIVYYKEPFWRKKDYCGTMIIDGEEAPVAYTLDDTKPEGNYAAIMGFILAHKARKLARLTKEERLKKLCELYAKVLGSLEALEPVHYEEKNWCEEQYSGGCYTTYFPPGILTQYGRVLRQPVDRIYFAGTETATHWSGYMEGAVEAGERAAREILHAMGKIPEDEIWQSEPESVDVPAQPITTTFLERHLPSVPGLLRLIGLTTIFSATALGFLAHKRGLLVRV
Put plainly: biochemical.
Description: Inhibition of recombinant human MAOB expressed in baculovirus infected BTI insect cells using beetle luciferin as substrate after 1 hr by MAO-Glo assay

Data set [5] deals with Lysine-specific histone demethylase 1A (Homo sapiens, UniProt O60341).
Description: Inhibition of human N-terminal GST-tagged LSD1 isoform2 (158 to end residues) expressed in Escherichia coli using methylated peptide as substrate preincubated with substrate for 15 mins followed by enzyme addition and measured after 30 mins by amplex red and horseradish peroxidase based fluorescence assay

Drawing on ChEMBL document CHEMBL4330120, “Identification of selective and reversible LSD1 inhibitors with anti-metastasis activity by high-throughput docking” (Bioorg Med Chem Lett, 2019), this text covers inhibition and IC50 for two compounds.

pIC50: −log10 of the molar value.

By inhibition is commonly meant the relative decrease from the control value, in per cent. High values mean a response far below the control, low ones a response near the control. A word on the pIC50: it is −log10 of the IC50, conventionally taken in molar units.

`O=C(CCC1NC(=O)NC1=O)NCCc1c[nH]c2ccccc12` (stereo not given): the inhibition at 4 h, 100 µM in data set [1] and in data set [2] was 35% in each case. Further, the pIC50 in data set [3] and in data set [4] was less than 3.70 in each case.

Compound `Cc1nc(-c2ccc(CN(C)Cc3cccc4cnccc34)cc2)[nH]c(=O)c1F` gave a pIC50 in data set [5] of less than 4.00.
